Assay results from patent US9029325B2, “Amylin analogues and pharmaceutical compositions thereof” (Novo Nordisk A/S, priority 2011, dated 2015).
Starred links: 1 amine or outer side, 2 acyl side, 3 side chain; linkers in the order of their positions; H or OH if unused. Positions of bridges follow the written chain, without caps; N, C: chain ends. Residues, ends and D or L forms follow the SMILES beside them. *: point of attachment. C20 diacid = O=C(O)CCCCCCCCCCCCCCCCCCC(=O)*; γGlu = O=C(O)[C@H](CCC(=O)[*:2])N[*:1]

Test: Assay (III) ThT fibrillation assay for physical stability
Assay type: physicochemical
Conditions: for Th T pH 4.0 lag time (h): 37° C., orbital shaking 960 rpm; for ThT pH 4.0 lag time: Table 9
Description: Low physical stability of a polypeptide may lead to amyloid fibril formation, which is observed as well-ordered, thread-like macromolecular structures in the sample eventually resulting in gel formation. This has traditionally been measured by visual inspection of the sample. However, that kind of measurement is very subjective and depending on the observer. Therefore, the application of a small molecule indicator probe is much more advantageous. Thioflavin T (ThT) is such a probe and has a distinct fluorescence signature when binding to fibrils [Naiki et al. (1989) Anal. Biochem. 177, 244-249; LeVine (1999) Methods. Enzymol. […], 274-284].
The time course for fibril formation can be described by a sigmoidal curve with the following expression [Nielsen et al. (2001) Biochemistry 40, 6036-6046]:
[formula] Here, F is the ThT fluorescence at the time t. The constant t0 is the time needed to reach 50% of maximum fluorescence. The two important parameters describing fibril formation are the lag-time calculated by t0−2T and the apparent rate constant kapp=1/τ.
Few of those intermediates nucleate to form a template onto which further intermediates may assembly and the fibrillation proceeds. The lag-time corresponds to the interval in which the critical mass of nucleus is built up and the apparent rate constant is the rate with which the fibril itself is formed.
Samples were prepared freshly before each assay. Each sample composition is described in each example. The pH of the sample was adjusted to the desired value using appropriate amounts of concentrated NaOH and HClO4 or HCl. Thioflavin T was added to the samples from a stock solution in H2O to a final concentration of 1 μM.
Sample aliquots of 200 μl were placed in a 96 well microtiter plate (Packard OptiPlate™-96, white polystyrene). Usually, four or eight replica of each sample (corresponding to one test condition) were placed in one column of wells. The plate was sealed with Scotch Pad (Qiagen).
Incubation at given temperature, shaking and measurement of the ThT fluorescence emission were done in a Fluoroskan Ascent FL fluorescence platereader or Varioskan platereader (Thermo Labsystems). The temperature was adjusted to 37° C. The orbital shaking was adjusted to 960 rpm with an amplitude of 1 mm in all the presented data. Fluorescence measurement was done using excitation through a 444 nm filter and measurement of emission through a 485 nm filter.
Each run was initiated by incubating the plate at the assay temperature for 10 min. The plate was measured every 20 minutes for a desired period of time. Between each measurement, the plate was shaken and heated as described.
The measurement points were saved in Microsoft Excel format for further processing and curve drawing and fitting was performed using GraphPad Prism. The background emission from ThT in the absence of fibrils was negligible. The data points are typically a mean of four or eight samples and shown with standard deviation error bars. Only data obtained in the same experiment (i.e. samples on the same plate) are presented in the same graph ensuring a relative measure of fibrillation […].
The data set may be fitted to Eq. (1). However, since full sigmodial curves in this case are not always achieved during the measurement time, the degree of fibrillation is expressed as ThT fluorescence tabulated as the mean of the samples and shown with the standard deviation at various time points.
The polypeptide concentration in each of the tested formulations were measured both before application in the ThT fibrillation assay (“Initial”) and after completion of the ThT fibrillation (“After ThT assay”). Concentrations were determined by reverse HPLC methods using a pramlintide standard as a reference. Before measurement after completion 150 μl was collected from each of the replica and transferred to an Eppendorf tube. These were centrifuged at 30000 G for 40 mins. […]

Row | SMILES | Th T pH 4.0 lag time (h) | ThT pH 4.0 lag time [hr]
1 | CC[C@H](C)[C@H](NC(=O)[C@@H]1CCCN1C(=O)CNC(=O)[C@H](Cc1ccccc1)NC(=O)[C@H](CC(N)=O)NC(=O)[C@H](CC(N)=O)NC(=O)[C@H](CO)NC(=O)[C@H](CO)NC(=O)[C@H](Cc1c[nH]cn1)NC(=O)[C@H](Cc1c[nH]cn1)NC(=O)[C@H](CC(C)C)NC(=O)[C@H](Cc1ccccc1)NC(=O)[C@H](CCC(=O)O)NC(=O)[C@H](C)NC(=O)[C@H](CC(C)C)NC(=O)[C@H](CCCNC(=N)N)NC(=O)[C@H](CCC(N)=O)NC(=O)[C@@H](NC(=O)[C@H](C)NC(=O)[C@@H]1CSSC[C@H](NC(=O)[C@H](CCCCN)NC(=O)CC[C@H](NC(=O)CCCCCCCCCCCCCCCCCCC(=O)O)C(=O)O)C(=O)N[C@@H](CC(N)=O)C(=O)N[C@@H]([C@@H](C)O)C(=O)N[C@@H](C)C(=O)N[C@@H]([C@@H](C)O)C(=O)N1)[C@@H](C)O)C(=O)N[C@@H](CC(C)C)C(=O)N1CCC[C@H]1C(=O)N1CCC[C@H]1C(=O)N[C@H](C(=O)N[C@@H](CC(N)=O)C(=O)N[C@H](C(=O)NCC(=O)N[C@@H](CO)C(=O)N[C@@H](CCC(N)=O)C(=O)N[C@H](C(=O)N1CCC[C@H]1C(N)=O)[C@@H](C)O)C(C)C)[C@@H](C)O [Example 135, N-alpha-[(S)-4-Carboxy-4-(19-carboxynonadecanoylamino)butyryl]-[Glu14, His17, Gln35, Pro37]-pramlintide] ({C20 diacid-γGlu}-KCNTATCATQRLAEFLHHSSNNFGPILPPTNVGSQTP-NH2; disulfide 2-7) | >45 | >45
2 | CC[C@H](C)[C@H](NC(=O)[C@@H]1CCCN1C(=O)CNC(=O)[C@H](Cc1ccccc1)NC(=O)[C@H](CC(N)=O)NC(=O)[C@H](CCC(N)=O)NC(=O)[C@H](CO)NC(=O)[C@H](CO)NC(=O)[C@H](Cc1c[nH]cn1)NC(=O)[C@H](Cc1c[nH]cn1)NC(=O)[C@H](CC(C)C)NC(=O)[C@H](Cc1ccccc1)NC(=O)[C@H](CCC(=O)O)NC(=O)[C@H](C)NC(=O)[C@H](CC(C)C)NC(=O)[C@H](CCCNC(=N)N)NC(=O)[C@H](CCC(N)=O)NC(=O)[C@@H](NC(=O)[C@H](C)NC(=O)[C@@H]1CSSC[C@H](NC(=O)[C@H](CCCCN)NC(=O)CC[C@H](NC(=O)CCCCCCCCCCCCCCCCCCC(=O)O)C(=O)O)C(=O)N[C@@H](CC(N)=O)C(=O)N[C@@H]([C@@H](C)O)C(=O)N[C@@H](C)C(=O)N[C@@H]([C@@H](C)O)C(=O)N1)[C@@H](C)O)C(=O)N[C@@H](CC(C)C)C(=O)N1CCC[C@H]1C(=O)N1CCC[C@H]1C(=O)N[C@H](C(=O)N[C@@H](CC(N)=O)C(=O)N[C@H](C(=O)NCC(=O)N[C@@H](CO)C(=O)N[C@@H](CCC(N)=O)C(=O)N[C@H](C(=O)N1CCC[C@H]1C(N)=O)[C@@H](C)O)C(C)C)[C@@H](C)O [Example 136, N-alpha-[(S)-4-Carboxy-4-(19-carboxynonadecanoylamino)butyryl]-[Glu14, His17, Gln21, Gln35, Pro37]-pramlintide] ({C20 diacid-γGlu}-KCNTATCATQRLAEFLHHSSQNFGPILPPTNVGSQTP-NH2; disulfide 2-7) | >45 | >45
3 | CC[C@H](C)[C@H](NC(=O)[C@@H]1CCCN1C(=O)CNC(=O)[C@H](Cc1ccccc1)NC(=O)[C@H](CC(N)=O)NC(=O)[C@H](CCC(N)=O)NC(=O)[C@H](CO)NC(=O)[C@H](CO)NC(=O)[C@H](Cc1c[nH]cn1)NC(=O)[C@H](Cc1c[nH]cn1)NC(=O)[C@H](CC(C)C)NC(=O)[C@H](Cc1ccccc1)NC(=O)[C@H](CCC(=O)O)NC(=O)[C@H](C)NC(=O)[C@H](CC(C)C)NC(=O)[C@H](CCCNC(=N)N)NC(=O)[C@H](CCC(N)=O)NC(=O)[C@@H](NC(=O)[C@H](C)NC(=O)[C@@H]1CSSC[C@H](NC(=O)CNC(=O)CC[C@H](NC(=O)CCCCCCCCCCCCCCCCCCC(=O)O)C(=O)O)C(=O)N[C@@H](CC(N)=O)C(=O)N[C@@H]([C@@H](C)O)C(=O)N[C@@H](C)C(=O)N[C@@H]([C@@H](C)O)C(=O)N1)[C@@H](C)O)C(=O)N[C@@H](CC(C)C)C(=O)N1CCC[C@H]1C(=O)N1CCC[C@H]1C(=O)N[C@H](C(=O)N[C@@H](CC(N)=O)C(=O)N[C@H](C(=O)NCC(=O)N[C@@H](CO)C(=O)N[C@@H](CCC(N)=O)C(=O)N[C@H](C(=O)N1CCC[C@H]1C(N)=O)[C@@H](C)O)C(C)C)[C@@H](C)O [Example 137, N-alpha-[(S)-4-Carboxy-4-(19-carboxynonadecanoylamino)butyryl]-[Gly1, Glu14, His17, Gln21, Gln35, Pro37]-pramlintide] ({C20 diacid-γGlu}-GCNTATCATQRLAEFLHHSSQNFGPILPPTNVGSQTP-NH2; disulfide 2-7) | 29 | 
4 | CC[C@H](C)[C@H](NC(=O)[C@@H]1CCCN1C(=O)CNC(=O)[C@H](Cc1ccccc1)NC(=O)[C@H](CC(N)=O)NC(=O)[C@H](CC(N)=O)NC(=O)[C@H](CO)NC(=O)[C@H](CO)NC(=O)[C@H](Cc1c[nH]cn1)NC(=O)[C@H](Cc1c[nH]cn1)NC(=O)[C@H](CC(C)C)NC(=O)[C@H](Cc1ccccc1)NC(=O)[C@H](CCC(=O)O)NC(=O)[C@H](C)NC(=O)[C@H](CC(C)C)NC(=O)[C@H](CCCCN)NC(=O)[C@H](CCC(N)=O)NC(=O)[C@@H](NC(=O)[C@H](C)NC(=O)[C@@H]1CSSC[C@H](NC(=O)[C@H](CCCCN)NC(=O)CC[C@H](NC(=O)CCCCCCCCCCCCCCCCCCC(=O)O)C(=O)O)C(=O)N[C@@H](CC(N)=O)C(=O)N[C@@H]([C@@H](C)O)C(=O)N[C@@H](C)C(=O)N[C@@H]([C@@H](C)O)C(=O)N1)[C@@H](C)O)C(=O)N[C@@H](CC(C)C)C(=O)N1CCC[C@H]1C(=O)N1CCC[C@H]1C(=O)N[C@H](C(=O)N[C@@H](CC(N)=O)C(=O)N[C@H](C(=O)NCC(=O)N[C@@H](CO)C(=O)N[C@@H](CC(N)=O)C(=O)N[C@H](C(=O)N1CCC[C@H]1C(N)=O)[C@@H](C)O)C(C)C)[C@@H](C)O [Example 145, N-alpha-[(S)-4-Carboxy-4-(19-carboxynonadecanoylamino)butyryl]-[Lys11, Glu14, His17, Pro37]-pramlintide] ({C20 diacid-γGlu}-KCNTATCATQKLAEFLHHSSNNFGPILPPTNVGSNTP-NH2; disulfide 2-7) | >45 | >45
5 | CC[C@H](C)[C@H](NC(=O)[C@@H]1CCCN1C(=O)CNC(=O)[C@H](Cc1ccccc1)NC(=O)[C@H](CC(N)=O)NC(=O)[C@@H](NC(=O)[C@H](CO)NC(=O)[C@H](CO)NC(=O)[C@H](Cc1c[nH]cn1)NC(=O)[C@H](Cc1c[nH]cn1)NC(=O)[C@H](CC(C)C)NC(=O)[C@H](Cc1ccccc1)NC(=O)[C@H](CCC(=O)O)NC(=O)[C@H](C)NC(=O)[C@H](CC(C)C)NC(=O)[C@H](CCCNC(=N)N)NC(=O)[C@H](CCC(N)=O)NC(=O)[C@@H](NC(=O)[C@H](C)NC(=O)[C@@H]1CSSC[C@H](NC(=O)[C@H](CCCCN)NC(=O)CC[C@H](NC(=O)CCCCCCCCCCCCCCCCCCC(=O)O)C(=O)O)C(=O)N[C@@H](CC(N)=O)C(=O)N[C@@H]([C@@H](C)O)C(=O)N[C@@H](C)C(=O)N[C@@H]([C@@H](C)O)C(=O)N1)[C@@H](C)O)[C@@H](C)O)C(=O)N[C@@H](CC(C)C)C(=O)N1CCC[C@H]1C(=O)N1CCC[C@H]1C(=O)N[C@H](C(=O)N[C@@H](CC(N)=O)C(=O)N[C@H](C(=O)NCC(=O)N[C@@H](CO)C(=O)N[C@@H](CC(N)=O)C(=O)N[C@H](C(=O)N1CCC[C@H]1C(N)=O)[C@@H](C)O)C(C)C)[C@@H](C)O [Example 146, N-alpha-[(S)-4-Carboxy-4-(19-carboxynonadecanoylamino)butyryl]-[Glu14, His17, Thr21, Pro37]-pramlintide] ({C20 diacid-γGlu}-KCNTATCATQRLAEFLHHSSTNFGPILPPTNVGSNTP-NH2; disulfide 2-7 (inferred); C-terminus assumed) | >45 | >45
